Values of other authors, collected in patent US20090263467A1, “COMBINATION DRUG THERAPY USING ORALLY DISSOLVING FILM OR ORALLY DISINTEGRATING TABLET DOSAGE FORMS TO TREAT DRY MOUTH AILMENTS” (priority 2008, published 2009).

Legend:
[1] = neutral pH

- permeability [1]: higher
- half-life: 45.6 min
SMILES: CC[C@@H]1C(=O)OC[C@@H]1Cc1cncn1C [Pilocarpine]
